From PMC3608651, “A Broad Profile of Co-Dominant Epitopes Shapes the Peripheral Mycobacterium tuberculosis Specific CD8+ T-Cell Immune Response in South African Patients with Active Tuberculosis” (PLoS ONE, 2013)

What was measured:
Format in all cases: binding
[1] = biological target: T1, HLA-B*07:02 (Homo sapiens, UniProt P01889); settings: percent relative the binding of positive control peptide […]; duplicated experiments; positive binder >40%
[2] = biological target: T2, HLA-A*30:01 (Homo sapiens, UniProt P04439, D140H/D185E/E176W/F33S/G80R/H175R/K168Q/R138E/R41S); settings: percent relative the binding of positive control peptide […]; duplicated experiments; positive binder >40%
[3] = biological target: T3, HLA-A*68:01 (Homo sapiens, UniProt P04439, A269V/D185E/E176V/E277Q/E87N/F33Y/G231S/I121M/I166T/I218V/L180W/L300P/L318F/N151K/P208A/P217A/Q86R/R169H/T345S)
[4] = biological target: T4, HLA-A*24:02 (Homo sapiens, UniProt P04439, D101N/D140Y/D185E/E176V/E190D/F33S/G103R/G107R/I119L/I121M/I306V/K335N/L105A/L180Q/L300P/N151K/N90K/Q86E/Q94H/R106L/R138H/R89G/T104I/T345S/V100E/W191G/Y123F); settings: percent relative the binding of positive control peptide […]; duplicated experiments; positive binder >40%
[5] = biological target: T3, HLA-A*68:01; settings: time points 0-8 h
[6] = biological target: T5, HLA-A*02:01 (Homo sapiens, UniProt P04439, D140Y/D185E/D98H/E176V/E277Q/G131W/G231S/I119V/I121R/I166T/I218V/L300P/L318F/N151K/N90K/P208A/P217A/Q86G/Q94H/R138H/R169H/T345S); settings: time points 0-8 h; time when 50% of peptide has dissociated
[7] = biological target: T6, HLA-A*30:02 (Homo sapiens, UniProt P04439, D101N/D140H/D185E/E176R/F33S/G80R/H175R/K168Q/Q94H/R138E/R41S/V100E); settings: time points 0-8 h
[8] = biological target: T5, HLA-A*02:01; settings: percent relative the binding of positive control peptide […]; plate-bound monomer 0.5 µg/ml; duplicated experiments; positive binder >40%
[9] = biological target: T6, HLA-A*30:02
[10] = biological target: T3, HLA-A*68:01; settings: percent relative the binding of positive control peptide […]; duplicated experiments; positive binder >40%
[11] = biological target: T7, HLA-C*07:01 (Homo sapiens, UniProt P10321, K90N/S123Y); assay: affinity assay (ED50)
[12] = biological target: T7, HLA-C*07:01; settings: percent relative the binding of positive control peptide […]; duplicated experiments; positive binder >40%
[13] = biological target: T5, HLA-A*02:01; settings: […]; peptide quantity for 50% binding saturation
[14] = biological target: T1, HLA-B*07:02; assay: affinity assay (ED50); settings: peptide titrated 10−4 to 10−9 M
[15] = biological target: T7, HLA-C*07:01; assay: off-rate assay (t1/2); settings: time points 0-8 h
[16] = biological target: T1, HLA-B*07:02; assay: off-rate assay (t1/2); settings: time points 0-8 h
[17] = biological target: T6, HLA-A*30:02; settings: percent relative the binding of positive control peptide […]; duplicated experiments; positive binder >40%
[18] = biological target: T8, HLA-B*58:01 (Homo sapiens, UniProt P01889, A329T/C349S/D201E/D98Y/E176V/E187L/E204Q/E69T/G107R/I218V/I90N/K202T/L105A/L119I/N104I/N87E/Q89R/Q94S/R106L/R155S/R180L/R86G/S101N/S121R/S35A/S48A/T118I/V127L/V306I/V36M/Y140S/Y91M); settings: percent relative the binding of positive control peptide […]; duplicated experiments; positive binder >40%
[19] = biological target: T2, HLA-A*30:01; assay: affinity assay (ED50); settings: peptide titrated 10−4 to 10−9 M
[20] = biological target: T2, HLA-A*30:01; assay: off-rate assay (t1/2); settings: time points 0-8 h
[21] = biological target: T4, HLA-A*24:02; settings: time points 0-8 h
[22] = biological target: T4, HLA-A*24:02
[23] = biological target: T8, HLA-B*58:01
[24] = biological target: T8, HLA-B*58:01; settings: time points 0-8 h

LSMAGSSAM
Bind B*07:02 [1]: 92%
Bind A*30:01 [2]: 0%
Aff A*68:01 (ED50) [3]: 1E -06 M
Bind A*24:02 [4]: 14%
O-rate A*68:01 (t1/2) [5]: 132 min
O-rate A*02:01 (t1/2) [6]: 84 min
O-rate A*30:02 (t1/2) [7]: 66 min
Bind A*02:01 [8]: 72%
Aff A*30:02 (ED50) [9]: 3E -06 M
Bind A*68:01 [10]: 51%
Aff C*07:01 (ED50) [11]: 3E -06 M
Bind C*07:01 [12]: 71%
Aff A*02:01 (ED50) [13]: 2e-07 M
Aff B*07:02 (ED50) [14]: 3E -07 M
O-rate C*07:01 (t1/2) [15]: 72 min
O-rate B*07:02 (t1/2) [16]: 156 min
Bind A*30:02 [17]: 79%
Bind B*58:01 [18]: 0%

AMKGDLQSS
Bind B*07:02 [1]: 9%
Bind A*30:01 [2]: 129%
Aff A*30:01 (ED50) [19]: 2E -06 M
Bind A*24:02 [4]: 42%
O-rate A*02:01 (t1/2) [6]: 102 min
O-rate A*30:02 (t1/2) [7]: 120 min
Bind A*02:01 [8]: 89%
Aff A*30:02 (ED50) [9]: 1E -07 M
O-rate A*30:01 (t1/2) [20]: 30 min
Bind A*68:01 [10]: 0%
Bind C*07:01 [12]: 23%
Aff A*02:01 (ED50) [13]: 2E -07 M
O-rate A*24:02 (t1/2) [21]: 18 min
Bind A*30:02 [17]: 47%
Bind B*58:01 [18]: 0%
Aff A*24:02 (ED50) [22]: 400 µM

AAYHPQQFI
Bind B*07:02 [1]: 9%
Bind A*30:01 [2]: 83%
Aff A*68:01 (ED50) [3]: 3E -05 M
Aff B*58:01 (ED50) [23]: 4E -08 M
Aff A*30:01 (ED50) [19]: 2E -07 M
Bind A*24:02 [4]: 54%
O-rate A*68:01 (t1/2) [5]: 228 min
O-rate A*02:01 (t1/2) [6]: 72 min
Bind A*02:01 [8]: 56%
O-rate A*30:01 (t1/2) [20]: 30 min
Bind A*68:01 [10]: 47%
Bind C*07:01 [12]: 0%
Aff A*02:01 (ED50) [13]: 6E -07 M
O-rate B*58:01 (t1/2) [24]: 48 min
Bind A*30:02 [17]: 34%
Bind B*58:01 [18]: 64%

WL S ANR AV K
Bind B*07:02 [1]: 49%
Bind A*30:01 [2]: 179%
Aff A*68:01 (ED50) [3]: 2E -07 M
Aff A*30:01 (ED50) [19]: 1E -06 M
Bind A*24:02 [4]: 40%
O-rate A*68:01 (t1/2) [5]: 126 min
Bind A*02:01 [8]: 13%
O-rate A*30:01 (t1/2) [20]: 30 min
Bind A*68:01 [10]: 139%
Bind C*07:01 [12]: 16%
Aff B*07:02 (ED50) [14]: 2E -06 M
O-rate B*07:02 (t1/2) [16]: 42 min
Bind A*30:02 [17]: 6%
Bind B*58:01 [18]: 1%

MGRDIKVQF
Bind B*07:02 [1]: 41%
Bind A*30:01 [2]: 0%
Aff B*58:01 (ED50) [23]: 3e-07 M
Bind A*24:02 [4]: 25%
O-rate A*30:02 (t1/2) [7]: 18 min
Bind A*02:01 [8]: 0%
Aff A*30:02 (ED50) [9]: 7e-08 M
Bind A*68:01 [10]: 10%
Aff C*07:01 (ED50) [11]: 8e-08 M
Bind C*07:01 [12]: 68%
Aff B*07:02 (ED50) [14]: 8e-07 M
O-rate B*58:01 (t1/2) [24]: 18 min
O-rate C*07:01 (t1/2) [15]: 12 min
O-rate B*07:02 (t1/2) [16]: 18 min
Bind A*30:02 [17]: 61%
Bind B*58:01 [18]: 61%

KLVANNT RL
Bind B*07:02 [1]: 43%
Bind A*30:01 [2]: 60%
Aff A*30:01 (ED50) [19]: 2E -08 M
Bind A*24:02 [4]: 73%
O-rate A*30:02 (t1/2) [7]: 132 min
Bind A*02:01 [8]: 81%
Aff A*30:02 (ED50) [9]: 1E -07 M
O-rate A*30:01 (t1/2) [20]: 42 min
Bind A*68:01 [10]: 18%
Bind C*07:01 [12]: 13%
Bind A*30:02 [17]: 167%
Bind B*58:01 [18]: 40%

YAGSLSALL
Bind B*07:02 [1]: 41%
Bind A*30:01 [2]: 0%
Aff B*58:01 (ED50) [23]: 3E -08 M
Bind A*24:02 [4]: 81%
O-rate A*30:02 (t1/2) [7]: 54 min
Bind A*02:01 [8]: 66%
Aff A*30:02 (ED50) [9]: 2e-07 M
Bind A*68:01 [10]: 13%
Bind C*07:01 [12]: 19%
Aff B*07:02 (ED50) [14]: 1e-05 M
O-rate B*58:01 (t1/2) [24]: 42 min
O-rate B*07:02 (t1/2) [16]: 36 min
O-rate A*24:02 (t1/2) [21]: 72 min
Bind A*30:02 [17]: 64%
Bind B*58:01 [18]: 58%
Aff A*24:02 (ED50) [22]: 1 µM

NFVRSSNLK
Bind B*07:02 [1]: 0%
Bind A*30:01 [2]: 101%
Aff A*68:01 (ED50) [3]: 3E -06 M
Aff A*30:01 (ED50) [19]: 9E -07 M
Bind A*24:02 [4]: 0%
O-rate A*68:01 (t1/2) [5]: 12 min
Bind A*02:01 [8]: 3%
O-rate A*30:01 (t1/2) [20]: 24 min
Bind A*68:01 [10]: 84%
Bind C*07:01 [12]: 0%
Bind A*30:02 [17]: 0%
Bind B*58:01 [18]: 10%
